Tests used:
MIA PaCa-2 cells = experiment: Cellular viability assay (Cell Titer Fluor); format: cell-based; conditions: Homo sapiens, 72 hours incubation
Method: Cell viability were performed using the Cell Titer Fluor™ Assays (Promega G6080). MIA PaCa-2 cells are grown in DMEM media with 10% FBS, 1% Pen/Strep/Amphotericin B. Cells are trypsinized and counted using the Nexcelom cellometer. 5,000 cells/100 μl are plated per well in Greiner black/clear 96-well plates. Cells should be within 10 passages of stock vial for use in workflow. Three distinct lineages of these cells are cultured in parallel for multiple passages and 5 full plates of each lineage are seeded for one run. Small molecule compounds are provided as 100 mM stock solutions in DMSO. Dilution series plates are prepared using 1:3 dilution to achieve a 7 point concentration on a half log scale. After addition of compounds, cells are incubated 37° C., 5% CO2 for 72 hours.
For each test compound condition, triplicate technical replicates are used. For each reference compound, duplicate technical replicates are used. At the end of the 72-hour incubation, spent media is discarded. Then, 100 μl of GF-AFC diluted in DMEM (serum and phenol red-free) is added at 1:2000 concentration (5 μl/10 ml). Cells are incubated with reaction buffer for 1 h at 37° C. Fluorescence is then read on the plate reader with excitation wavelength of 390 nm and emission wavelength of 505 nm. All raw data are analyzed on Microsoft Excel 2010 and normalized to the DMSO vehicle control. Relative results are copied into GraphPad Prism for non-linear regression analysis and determination of IC50 and other dose curve parameters (min, max, Hill slope, etc.) using the log (inhibitor) vs. response equation. Values are as follows: A represents an IC50 of <[…], B represents an IC50 of 1 mM to 10 mM, C represents an IC50 of >10 mM.

K-562 tumor grafts = experiment: Tumor growth inhibition in K-562 murine xenograft model; format: in vivo, Mouse (Mus musculus); conditions: bid., p.o., K-562 xenograft, SCID Bg mice
Method: K-562 cancer cell line sourced from American Type Culture Collection (ATCC), USA. Cells were grown in IMDM medium (Sigma, Cat #30-2005) supplemented with 10% FBS (Invitrogen, Cat #10438-026), and 1% penicillin streptomycin (Invitrogen, Cat #15140-122). To establish xenograft, the cells were harvested by trypsinization when they reach around 70 to 80% confluence and 5 million K-562 cells were suspended in 200 μL of serum-free medium and mixed at 1:1 ratio with matrigel before implanting subcutaneously into the dorsal right flank of SCID Bg mice using a 1 mL BD syringe attached to a 24-gauge needle.
K-562 tumor grafts were measured after 10 days of cell inoculation once they became palpable. When the average tumor volume reached around 85 mm^3, animals were dosed after randomization into different treatment groups keeping tumor volume and number of animals in such a way so that the average tumor volume of each group remained same across the groups.
Compounds were formulated in 0.5% CMC+0.1% Tween 80 and given for 12 consecutive days BID with 8 hour gaps.

Row | IC50 (MIA PaCa-2 cells; MIA PaCa-2, 72 h) [nM] | Compound | other results
1 | > 10000 | O=C(NCc1n[nH]c(-c2cccs2)n1)c1nccnc1N1CCCC(F)(F)C1 [Compound 90] | 
2 | < 1000 | O=C(NCc1cc(-c2cc(F)ccc2O)[nH]n1)c1cc(F)ccc1N1CCCCC1 [Compound 91] | 
3 | < 1000 | CCOc1ccc(F)cc1-c1cc(CNC(=O)c2cc(F)ccc2N2CCCC2)n[nH]1 [Compound 92] | 
4 | < 1000 | CC(C)Oc1ccc(F)cc1-c1cc(CNC(=O)c2cc(F)ccc2N2CCCCC2)n[nH]1 [Compound 93] | 
5 | < 1000 | O=C(NCc1cc(-c2cccs2)[nH]n1)c1cc(F)ccc1N1CCCC1 [Compound 94] | 
6 | < 1000 | Cc1ccc(N2CCCC(F)(F)C2)c(C(=O)NCc2cc(-c3cccs3)[nH]n2)c1 [Compound 96] | 
7 | 1000 to 10000 | Cc1cccc(C(=O)NCc2cc(-c3cccs3)[nH]n2)c1N1CCC(F)(F)C1 [Compound 97] | 
8 | < 1000 | CC(C)Oc1ccc(F)cc1-c1cc(CNC(=O)c2cc(F)ccc2N2CCCC2)n[nH]1 [Compound 98] | 
9 | < 1000 | CCOc1ccc(F)cc1-c1cc(CNC(=O)c2cc(F)ccc2N2CCCCC2)n[nH]1 [Compound 99] | 
10 | < 1000 | COc1ccccc1-c1cc(CNC(=O)c2cc(F)ccc2N2CCCCC2)n[nH]1 [Compound 100] | 
11 | < 1000 | O=C(NCc1cc(-c2ccccc2O)[nH]n1)c1cc(F)ccc1N1CCCCC1 [Compound 101] | 
12 | < 1000 | COc1ccccc1-c1cc(CNC(=O)c2ccccc2N2CCCCC2)n[nH]1 [Compound 102, N-((5-(2-methoxyphenyl)-1H-pyrazol-3-yl)methyl)-2-(piperidin-1-yl) benzamide] | 
13 | < 1000 | O=C(NCc1cc(-c2cccs2)[nH]n1)c1ccccc1N1CCCCCC1 [Compound 103] | 
14 | < 1000 | COc1ccccc1-c1cc(CNC(=O)c2cc(F)ccc2N2CCCC2)n[nH]1 [Compound 104] | 
15 | < 1000 | COc1ccccc1-c1cc(CNC(=O)c2ccccc2N2CCCC2)n[nH]1 [Compound 105] | 
16 | < 1000 | COc1ccc(F)cc1-c1cc(CNC(=O)c2cc(F)ccc2N2CCCCC2)n[nH]1 [Compound 110] | 
17 | > 10000 | COc1cccc(-c2cc(CNC(=O)c3ccccc3OC(F)(F)F)n[nH]2)c1OC [Compound 114] | 
18 | > 10000 | CCCOc1ccc(F)cc1-c1cc(CNC(=O)c2ccccc2OC(F)(F)F)n[nH]1 [Compound 115] | 
19 | > 10000 | CC(C)Oc1ccc(F)cc1-c1cc(CNC(=O)c2ccccc2OC(F)(F)F)n[nH]1 [Compound 116] | 
20 | > 10000 | COc1ccc(-c2cc(CNC(=O)c3ccccc3OC(F)(F)F)n[nH]2)c(OC)c1 [Compound 117] | 
21 | 1000 to 10000 | COc1ccccc1-c1nc(C2(NC(=O)c3ccccc3OC(F)F)CC2)n[nH]1 [Compound 118, 2-(difluoromethoxy)-N-(1-(5-(2-methoxyphenyl)-1H-1,2,4-triazol-3-yl)cyclopropyl) benzamide] | 
22 | 1000 to 10000 | COc1ccc(F)cc1-c1nc(CNC(=O)c2ccc3c(c2)OC(F)(F)O3)n[nH]1 [Compound 119] | 

Row | IC50 (MIA PaCa-2 cells; MIA PaCa-2, 72 h) [nM] | Compound | other results
23 | 1000 to 10000 | COc1ccccc1-c1nc(CNC(=O)c2ccc3c(c2)OC(F)(F)O3)n[nH]1 [Compound 120] | 
24 | > 10000 | COc1ccccc1-c1cc(S(=O)(=O)NC(=O)c2ccccc2OC(F)F)n[nH]1 [Compound 121, 2-(difluoromethoxy)-N-((5-(2-methoxyphenyl)-1H-pyrazol-3-yl)sulfonyl) benzamide] | 
25 | > 10000 | COc1ccccc1-c1cc(S(=O)(=O)NC(=O)c2ccccc2OC(F)(F)F)n[nH]1 [Compound 122, N-[[5-(2-methoxyphenyl)-1H-pyrazol-3-yl]sulfonyl]-2-(trifluoromethoxy)benzamide] | 
26 | 1000 to 10000 | COc1ccccc1-c1nc(S(=O)(=O)NC(=O)c2ccccc2OC(F)(F)F)n[nH]1 [Compound 123, N-((5-(2-methoxyphenyl)-1H-1,2,4-triazol-3-yl)sulfonyl)-2-(trifluoromethoxy) benzamide] | 
27 | 1000 to 10000 | COc1ccccc1-c1nc(S(=O)(=O)NC(=O)c2ccccc2OC(F)F)n[nH]1 [Compound 124, 2-(difluoromethoxy)-N-((5-(2-methoxyphenyl)-1H-1,2,4-triazol-3-yl)sulfonyl) benzamide] | 
28 | < 1000 | COc1ccccc1-c1nc(CNC(=O)c2ccccc2OC(F)(F)F)n[nH]1 [Compound 125] | 
29 | < 1000 | COc1ccccc1-c1nc(CNC(=O)c2ccccc2OC(F)F)n[nH]1 [Compound 126, 2-(difluoromethoxy)-N-((5-(2-methoxyphenyl)-1H-1,2,4-triazol-3-yl)methyl) benzamide] | % Tumor Growth Inhibition (TGI) on day 3 (K-562 tumor grafts; 75 mg/kg/dose): 41%; % Tumor Growth Inhibition (TGI) on day 5 (K-562 tumor grafts; 75 mg/kg/dose): 32%; % Tumor Growth Inhibition (TGI) on day 8 (K-562 tumor grafts; 75 mg/kg/dose): 27%; % Tumor Growth Inhibition (TGI) on day 10 (K-562 tumor grafts; 75 mg/kg/dose): 27%; % Tumor Growth Inhibition (TGI) on day 12 (K-562 tumor grafts; 75 mg/kg/dose): 36%; % Tumor Growth Inhibition (TGI) on day 3 (K-562 tumor grafts; 200 mg/kg/dose): 55%; % Tumor Growth Inhibition (TGI) on day 5 (K-562 tumor grafts; 200 mg/kg/dose): 51%; % Tumor Growth Inhibition (TGI) on day 8 (K-562 tumor grafts; 200 mg/kg/dose): 51%; % Tumor Growth Inhibition (TGI) on day 10 (K-562 tumor grafts; 200 mg/kg/dose): 43%; % Tumor Growth Inhibition (TGI) on day 12 (K-562 tumor grafts; 200 mg/kg/dose): 44%
30 |  | COc1ccc(F)cc1-c1nc(CNC(=O)c2ccccc2OC(F)(F)F)n[nH]1 [Compound 127, N-((5-(5-fluoro-2-methoxyphenyl)-1H-1,2,4-triazol-3-yl)methyl)-2-(trifluoromethoxy)benzamide] | IC50 (MIA PaCa-2 cells): < 1000 nM
31 | < 1000 | COc1ccc(F)cc1-c1nc(CNC(=O)c2ccccc2OC(F)F)n[nH]1 [Compound 128] | 
32 | < 1000 | O=C(NCc1n[nH]c(-c2cc(F)ccc2O)n1)c1ccccc1OC(F)F [Compound 129] | 
33 | < 1000 | O=C(NCc1n[nH]c(-c2cc(F)ccc2O)n1)c1ccccc1OC(F)(F)F [Compound 130] | 
34 | < 1000 | COc1ccccc1-c1nc(CNC(=O)c2cccc3c2OC(F)(F)O3)n[nH]1 [Compound 132] | 
35 | < 1000 | COc1ccccc1-c1nc(CNC(=O)c2cc(F)ccc2OC(F)(F)F)n[nH]1 [Compound 134] | 
36 | < 1000 | COc1ccc(F)cc1-c1nc(CNC(=O)c2cccc(F)c2OC(F)F)n[nH]1 [Compound 135, 2-(difluoromethoxy)-3-fluoro-N-((5-(5-fluoro-2-methoxyphenyl)-1H-1,2,4-triazol-3-yl)methyl) benzamide] | 
37 | < 1000 | COc1ccccc1-c1nc(CNC(=O)c2cccc(F)c2OC(F)F)n[nH]1 [Compound 136, 2-(difluoromethoxy)-3-fluoro-N-((5-(2-methoxyphenyl)-1H-1,2,4-triazol-3-yl)methyl) benzamide] | 
38 | < 1000 | COc1ccccc1-c1nc(CNC(=O)c2cc(F)ccc2OC(F)F)n[nH]1 [Compound 138, 2-(difluoromethoxy)-5-fluoro-N-((5-(2-methoxyphenyl)-1H-1,2,4-triazol-3-yl)methyl) benzamide] | 
39 | < 1000 | COc1ccc(F)cc1-c1nc(CNC(=O)c2cc(C#N)ccc2OC(F)F)n[nH]1 [Compound 139] | 
40 | < 1000 | COc1ccccc1-c1nc(CNC(=O)c2cc(C#N)ccc2OC(F)F)n[nH]1 [Compound 140] | 
41 | < 1000 | COc1ccc(F)cc1-c1nc(CNC(=O)c2cccnc2OC(F)F)n[nH]1 [Compound 143, 2-(difluoromethoxy)-N-((5-(5-fluoro-2-methoxyphenyl)-1H-1,2,4-triazol-3-yl)methyl) nicotinamide] | 
42 | < 1000 | COc1ccccc1-c1nc(CNC(=O)c2cccnc2OC(F)F)n[nH]1 [Compound 144, 2-(difluoromethoxy)-N-((5-(2-methoxyphenyl)-1H-1,2,4-triazol-3-yl)methyl) nicotinamide] | 
43 | 1000 to 10000 | COc1ccc(F)cc1-c1nc(CNC(=O)c2cnccc2OC(F)F)n[nH]1 [Compound 147] | 
44 | 1000 to 10000 | COc1ccccc1-c1nc(CNC(=O)c2cnccc2OC(F)F)n[nH]1 [Compound 148] | 

Reference: US11091447B2, “UBE2K modulators and methods for their use” (Berg LLC, priority 2020, dated 2021)
